The experiment concerns platelets in whole blood. The experiment in a line: Blood coagulability measurement of whole blood by dielectric constant (dielectric coagulometer, DiCA-Ex / DiCA-In). Format: cell-based, human (healthy subject). The protocol: Measurement of blood coagulability was conducted using the blood put to reaction in the experiment of 3-2 above. The measurement was carried out using a blood coagulation system analyzing device (dielectric coagulometer prototype No. 2), for performing the measurement of dielectric constant of the sample as aforementioned, and a comprehensive hemostatic ability measuring system ROTEM (registered trademark), at a measurement temperature of 37° C.
In the case of the blood coagulation system analyzing device, measurement of DiCA-Ex to which an aqueous calcium solution (0.2 M Ca) and a commercialized extrinsic stimulus reagent (100 fold dilution+PBS (v/v=1/5)) were added immediately before the start of measurement, and measurement of DiCA-In to which an aqueous calcium solution (0.2 M Ca) and a commercialized intrinsic stimulus reagent (+PBS(v/v=1/5)) were added, were conducted. The amount was unifiedly set to be 12 uL per 180 uL of blood.
The time of 10 minutes determinative of coagulation time was taken as an investigation time (FIG. 12-1), the maximum value was taken as 1, and the reciprocal of the difference therefrom was calculated (calculated CF), the results being depicted in FIG. 12-2. An average value obtained in the case where NaCl was added (control) was 17.7, whereas an average value obtained in the case where the platelet inducing substance was added was 12.7 (n=4).

Take `CCCCC[C@H](O)/C=C/[C@H]1[C@H](O)CC(=O)[C@@H]1CCCCCCC(=O)O` [prostaglandin E1]: the “difference between control and platelet inducing substance (platelet contribution part)” value (combination with ADP) was “this difference is reduced”.
Take “thrombin receptive activated protein [TRAP]”: the “amplitude of time variation in dielectric constant (normalized) at 100 kHz” value (whole blood, versus +NaCl control) is listed as “the amplitude is raised”.

Source of the values: US20190049428A1, “PLATELET AGGREGABILITY ANALYZING DEVICE, PLATELET AGGREGABILITY ANALYZING SYSTEM, PLATELET AGGREGABILITY ANALYZING PROGRAM, AND METHOD OF ANALYZING PLATELET AGGREGABILITY” (Sony Corporation, priority 2016, published 2019).
